Source: publication PMC9785777, “Antidiabetic Potential of Novel 1,3,5-Trisubstituted-2-Thioxoimidazloidin-4-One Analogues: Insights into α-Glucosidase, α-Amylase, and Antioxidant Activities” (Pharmaceuticals, 2022)
Values after ≈ are worked out from the molar mass of the structure shown. Values joined by “and” are separate entries in the source; they are usually repeats but may differ in a detail not shown here. Equal values may be shown once.

Experiments:
[1] = ROS-generation assay (H2O2 generated with DTT, HRP-phenol red, 610 nm); settings: 50 µM compound, incubated with DTT; control 90.74±5.54
Source text: The […] metabolites and enzymes (such as NADPH oxidase, lipoxygenase, and cytochrome P450) act together to mediate the production of ROS and diminish the counteractive oxidative damage. ROS can cause damage to DNA, lipid, proteins, and nucleic acids and the destruction of cell components leading to cell death. Toward this end, we aimed to investigate whether the mode of action of this class of compounds involved the generation of ROS. ROS-producing compounds upon reaction with a reducing agent in the presence of oxygen afford superoxide O^•−2 radical and hydrogen peroxide (H2O2) which could be quantitively estimated. Thus, compounds 5a and 7a (at 50 µM concentration) were incubated with the reducing agent dithiothreitol (DTT) and the generated H2O2 was subsequently assessed by monitoring the oxidation of phenol red in the presence of horseradish peroxidase (HRP) at the absorbance of 610 nm. We first examined the validity of the assay by examining the activity of a known ROS-producing standard drug. In our study, Celecoxib was utilized as a reference pharmacological ROS-generating drug. […] Next, we evaluated the potency of compounds 5a and 7a to produce ROS at a 50 µM concentration.
According to Nasiri et al., the antioxidant activity of compounds (5a, 7a) and Celecoxib was measured by an evaluation of ROS-generation using ELISA analysis. Three different solutions were prepared for the in vitro assessment of ROS-generation: phenol red, sodium hydroxide solution, and DTT. All reagents were provided by Sigma-Aldrich. A stock solution of DTT (20 mM) was prepared by dissolving […] of DTT in 500 µL of Hank’s Balanced Salt Solution (HBSS), and the obtained solution was preserved at −20 °C. The stock solution was further diluted with HBSS to 0.8 mM for each measurement. The HRP-PR solution was prepared by dissolving 1.8 mg of horseradish peroxidase (HRP) and 3 mg of phenol red (PR) in 10 mL of HBSS. […] After incubation, 1N NaOH was applied, and the absorbance at 610 nm was measured using a plate reader spectrometer. […]

[2] = DPPH free radical scavenging assay; settings: for DPPH free radical scavenging IC50: n = 4
Source text: The antioxidant capability of compounds 5a and 7a was estimated utilizing the DPPH (2,2-diphenyl-1- picrylhydrazyl) scavenging assay to assess the free radical scavenger activity. DPPH is a stable free radical substrate with a purple color which upon reaction with an antioxidant compound, converts into 1,1-diphenyl-2-picryl hydrazine, a […] compound. The DPPH assay is widely applied for the investigation of superoxide radical scavenging activity. In this regard, compounds 5a and 7a were incubated at different concentrations (3.12, 6.25, 12.5, 25, 50, 100, and 200 µg/mL) with DPPH substrate and the absorption was assessed by ELISA at 510 nm. In our investigations, Trolox, a water-soluble analogue of vitamin E, was applied as a standard antioxidant reference drug. […] Further, Qamar et al. synthesized and evaluated the antioxidant activity of some novel N3-substituted-2-thiohydantoins.
According to Valko et al., the ELISA approach was used to analyze the free-radical DPPH scavenging activity of compounds (5a and 7a) at different concentrations (3.12, 6.25, 12.5, 25, 50, 100, and 200 µg/mL). The DPPH assay assesses the hydrogen-donating activity and thus provides an evaluation of the antioxidant activity via estimating the DPPH free-radical scavenging activity. The color intensity of the reaction mixture was measured after a purple-colored stable free radical (DPPH) was reduced into the yellow-colored diphenylpicryl hydrazinem. Briefly, 200 µL of different concentrations of compounds 5a and 7a were mixed with 50 µL of DPPH (0.659 mM) solution, and the mixture was incubated at 25 °C for 20 min. The absorbance of the reaction mixture was estimated after incubation at 510 nm. In our investigations, trolox was employed as standard reference drug. A control reaction was performed, and the inhibitory efficiency of DPPH radical-scavenging activity was determined using the equation below: % Inhibition = (A0 − A1)/A0 × 100 (1) where A0 is absorbance of […] and A1 is the absorbance of the compound.

[3] = MTT cytotoxicity assay against WI-38 cells; type: cell-based, human; settings: human, WI-38 lung fibroblast cells; for viability at 48 h, 4 µg/mL: 4 µg/mL (log conc. 0.602); for viability at 48 h, 16 µg/mL: 16 µg/mL (log conc. 1.204); for viability at 48 h, 63 µg/mL: 63 µg/mL (log conc. 1.799); for viability at 48 h, 250 µg/mL: 250 µg/mL (log conc. 2.398); for viability at 48 h, 1000 µg/mL: 1000 µg/mL (log conc. 3); for IC50 at 48 h: MTT
Experimental: Based on the promising dual inhibitory activity of this class of compounds, we next evaluated the cytotoxicity of compounds 5a and 7a against human lung fibroblast cell line WI-38 in order to gain insights into the toxicity of this class of compounds utilizing the MTT assay. In this regard, lung fibroblast cells were cultured and treated with compounds 5a and 7a for 48 h at different concentrations (1000, 250, 63, 16, and 4 µg/mL). After the cells were washed, they were treated with MTT solution and the absorption was assessed using an ELISA reader at 570 nm. As a pharmacological reference drug, Celecoxib, a well-known anti-inflammatory agent, was utilized.
The cytotoxicity of compounds 5a and 7a was assessed toward the human lung fibroblast WI-38 cell line (Sigma-Aldrich, St. Louis, MO, USA, product number 90020107) using MTT assay. The MTT test assay was performed in accordance with the previously stated procedure. MTT (3-(4,5-dimethylthiazol-2-yl)-2,5-diphenyl tetrazolium bromide; Sigma catalog no. M2128) was dissolved in PBS at 5 mg/mL and processed to eliminate the insoluble residues. Briefly, cells (10^5 cells/well) were treated for 48 h at 37 °C with compounds 5a and 7a at varied doses (1000, 250, 63, 16, and 4 µg/mL, DMSO stock solutions) in a 5% CO2 atmosphere. In our assessment, celecoxib, an inhibitor of cyclooxygenase 2, was employed as a standard reference drug. Following cell washing, MTT solution (180 µL/well) was applied to the cells and incubated at 37 °C for 4 h with shaking, and the absorbance was measured using an ELISA reader at 570 nm.

| Compound | ROS produced (generated H2O2) [1] | %RSA (DPPH radical scavenging activity) ([2]; 3.12 µg/mL) | %RSA (DPPH radical scavenging activity) ([2]; 6.25 µg/mL) | %RSA (DPPH radical scavenging activity) ([2]; 12.5 µg/mL) | %RSA (DPPH radical scavenging activity) ([2]; 25 µg/mL) | %RSA (DPPH radical scavenging activity) ([2]; 50 µg/mL) | %RSA (DPPH radical scavenging activity) ([2]; 100 µg/mL) | %RSA (DPPH radical scavenging activity) ([2]; 200 µg/mL) | DPPH free radical scavenging IC50 [2] | viability at 48 h, 4 µg/mL [3] | viability at 48 h, 16 µg/mL [3] | viability at 48 h, 63 µg/mL [3] | viability at 48 h, 250 µg/mL [3] | viability at 48 h, 1000 µg/mL [3] | IC50 at 48 h [3] |
| --- | --- | --- | --- | --- | --- | --- | --- | --- | --- | --- | --- | --- | --- | --- | --- |
| COC(=O)CCN1C(=S)N(N=C(C)c2ccccc2O)C(=O)C1=Cc1ccccc1O [Compound 5a, Methyl [5-(2-hydroxybenzylidene)-4-oxo-3-(2-hydroxyphenylethylidene)amino-2-thioxoimidazolidin-1-yl] propionate] | 132.4 pg/mL and 132.4 ± 2.16 pg/mL | 12.8385% | 25.9268% | 34.2% | 49.2589% | 65.3256% | 84.0278% | 90.9673% | 51.75 µg/mL | 69% | 59.8% | 52.9% | 44.1% | 34.6% | 88.5 µg/mL (≈ 201 µM) |
| COC(=O)CCN1C(=S)N(N=C(C)c2ccccc2O)C(=O)C1=Cc1ccccc1OC(C)=O [Compound 7a, Methyl [5-(2-acetoxybenzylidene)-4-oxo-3-(2-hydroxyphenylethylidene)amino-2-thioxoimidazolidin-1-yl] propionate] | 191.5 pg/mL and 191.5 ± 3.62 pg/mL | 9.7382% | 18.9636% | 30.2839% | 45.4635% | 62.2992% | 81.6087% | 80.732% | 65.5 µg/mL | 73% | 60.6% | 53.4% | 44.1% | 36.6% | 109 µg/mL (≈ 227 µM) |
